According to US8486372B2, “Cyclic azapeptides as integrin markers and methods of using” (Siemens Medical Solutions USA, Inc., priority 2007, dated 2013):

Target: T1, Integrin αvβ3 expressing U87MG cells (Homo sapiens, UniProt P05106+P06756)
T1 construct: Integrin αvβ3 expressing U87MG cells; endogenous in cells; host or cells: U87MG cells
Assay: Cell-based integrin binding competition assay against green fluorescence labeled compound 13
Settings: 0-32 μM compound, 2 μM compound 13, 2 hrs, fluorescence reading, FIG. 2
Experimental: Integrin αvβ3 expressing U87MG cells were incubated with a series of concentration of RGD compounds (0-32 μM) in the presence of 2 μM of green fluorescence labeled compound 13 for 2 hrs. After incubation, cells were washed three times to eliminate unbound RGD compounds. Fluorescence readings (RLU) were then taken (excitation at 491 nm, emission at 518 nm, cutoff 515 nm).

Structure (SMILES): N=C(N)NCCC[C@@H]1NC(=O)[C@H](CCCCN)NC(=O)N(Cc2ccccc2)NC(=O)[C@H](CC(=O)O)NC(=O)CNC1=O [Compound 7, 2-((5S,8S,14S)-5-(4-aminobutyl)-2-benzyl-8-(3-guanidinopropyl)-3,6,9,12,15-pentaoxo-1,2,4,7,10,13-hexaazacyclopentadecan-14-yl)acetic acid]
- potency in binding competition: very similar in potency
